Test results: patent US20230150944A1, “PESTICIDALLY ACTIVE HETEROCYCLIC DERIVATIVES WITH SULFOXIMINE CONTAINING SUBSTITUENTS” (SYNGENTA CROP PROTECTION AG, priority 2018, published 2023)

Experiments:
Type in all cases: in vivo
[1] = tested on: Tetranychus urticae (Two-Spotted Spider Mite); assay: Example B10: Activity on Tetranychus urticae, bean leaf disc spray; conditions: foliar, 192 h
Experimental: Example B10: Activity on Tetranychus urticae (Two-Spotted Spider Mite)
Bean leaf discs on agar in 24-well microtiter plates were sprayed with aqueous test solutions prepared from 10′000 ppm DMSO stock solutions. After drying the leaf discs were infested with a mite population of mixed ages. The samples were assessed for mortality on mixed population (mobile stages) 8 days after infestation.

[2] = tested on: Myzus persicae (Green Peach Aphid); assay: Example B4: Activity on Myzus persicae, sunflower leaf disc spray; conditions: foliar, 144 h, application rate of 200 ppm, mixed-age aphids on sprayed sunflower leaf discs, 6 days after infestation
Experimental: Example B4: Activity on Myzus persicae (Green Peach Aphid)
Sunflower leaf discs were placed onto agar in a 24-well microtiter plate and sprayed with aqueous test solutions prepared from 10′000 ppm DMSO stock solutions. After drying, the leaf discs were infested with an aphid population of mixed ages. The samples were assessed for mortality 6 days after infestation.

[3] = tested on: Euschistus heros (Neotropical Brown Stink Bug); assay: Example B3: Activity on Euschistus heros, soybean leaf spray; conditions: 120 h, application rate of 200 ppm, N2 nymphs on soybean leaves, 5 days after infestation, read-out: effect in at least one of the two categories (mortality or growth inhibition)
Experimental: Example B3: Activity on Euschistus heros (Neotropical Brown Stink Bug)
Soybean leaves on agar in 24-well microtiter plates were sprayed with aqueous test solutions prepared from 10′000 ppm DMSO stock solutions. After drying the leaves were infested with N2 nymphs. The samples were assessed for mortality and growth inhibition in comparison to untreated samples 5 days after infestation.

[4] = tested on: Plutella xylostella (Diamond Back Moth); assay: Example B6: Activity on Plutella xylostella, artificial diet, L2 larvae; conditions: 120 h, application rate of 200 ppm, 5 days after infestation, read-out: effect in at least one of the two categories (mortality or growth inhibition)
Experimental: Example B6: Activity on Plutella xylostella (Diamond Back Moth)
(§1) 24-well microtiter plates with artificial diet were treated with aqueous test solutions prepared from 10′000 ppm DMSO stock solutions by pipetting. After drying, the plates were infested with L2 larvae (10 to 15 per well). The samples were assessed for mortality and growth inhibition in comparison to untreated samples 5 days after infestation.

[5] = tested on: Spodoptera littoralis (Egyptian Cotton Leaf Worm); assay: Example B7: Activity on Spodoptera littoralis, cotton leaf disc spray; conditions: foliar, 72 h, application rate of 200 ppm, L1 larvae on cotton leaf discs, 3 days after infestation, read-out: control (mortality, anti-feeding effect or growth inhibition)
Experimental: Example B7: Activity on Spodoptera littoralis (Egyptian Cotton Leaf Worm)
Cotton leaf discs were placed onto agar in 24-well microtiter plates and sprayed with aqueous test solutions prepared from 10′000 ppm DMSO stock solutions. After drying the leaf discs were infested with five L1 larvae. The samples were assessed for mortality, anti-feeding effect, and growth inhibition in comparison to untreated samples 3 days after infestation. Control of Spodoptera littoralis by a test sample is given when at least one of the categories mortality, anti-feedant effect, and growth inhibition is higher than the untreated sample.

[6] = tested on: Bemisia tabaci (Cotton White Fly); assay: Example B1: Activity on Bemisia tabaci, cotton leaf disc spray; conditions: foliar, 144 h, application rate of 200 ppm, adult white flies on cotton leaf discs, 6 days after incubation
Experimental: Example B1: Activity on Bemisia tabaci (Cotton White Fly)
Cotton leaf discs were placed on agar in 24-well microtiter plates and sprayed with aqueous test solutions prepared from 10′000 ppm DMSO stock solutions. After drying the leaf discs were infested with adult white flies. The samples were checked for mortality 6 days after incubation.

[7] = tested on: Diabrotica balteata (Corn Root Worm); assay: Example B2: Activity on Diabrotica balteata, maize sprout spray; conditions: 96 h, application rate of 200 ppm, L2 larvae on maize sprouts, 4 days after infestation, read-out: effect in at least one of the two categories (mortality or growth inhibition)
Experimental: Example B2: Activity on Diabrotica balteata (Corn Root Worm)
as §1, with “Maize sprouts placed onto an agar layer in 24-well” for “24-well”, “plates” for “plates with artificial diet”, “spraying.” for “pipetting.”, “(6” for “(10”, “10” for “15”, “4” for “5”

[8] = tested on: Myzus persicae (Green Peach Aphid); assay: Example B5: Activity on Myzus persicae, pea seedling roots in test solution; conditions: 144 h, test rate of 24 ppm, roots of infested pea seedlings placed into test solution, 6 days
Experimental: Example B5: Activity on Myzus persicae (Green Peach Aphid)
Roots of pea seedlings infested with an aphid population of mixed ages were placed directly into aqueous test solutions prepared from 10′000 DMSO stock solutions. The samples were assessed for mortality 6 days after placing seedlings into test solutions.

[9] = tested on: Plutella xylostella (Diamond Back Moth); assay: Example B11: Activity on Plutella xylostella, artificial diet, eggs; conditions: 192 h, application rate of 200 ppm, 8 days after infestation, read-out: effect in at least one of the two categories (mortality or growth inhibition)
Experimental: Example B11: Activity on Plutella xylostella (Diamond Back Moth)
as §1, with “drying, Plutella eggs were pipetted through a plastic stencil onto a gel blotting paper and” for “drying,”, “plate was closed” for “plates were infested”, “it.” for “L2 larvae (10 to 15 per well).”, “8” for “5”

CCS(=N)(=O)c1cc(C2CC2)cnc1-c1nc2cc(S(=O)(=O)C(F)(F)F)ncc2n1C (stereo not shown) [Example P3, [5-cyclopropyl-2-[3-methyl-6-(trifluoromethylsulfonyl)imidazo[4,5-c]pyridin-2-yl]-3-pyridyl]-ethyl-imino-oxo-λ^6-sulfane]
≥ 80%: mortality at 200 ppm [1] | mortality at 200 ppm [2] | percent effect (mortality or growth inhibition) at 200 ppm [3] | percent effect (mortality or growth inhibition) at 200 ppm [4] | percent control (mortality, anti-feedant effect or growth inhibition) at 200 ppm [5] | mortality at 200 ppm [6] | percent effect (mortality or growth inhibition) at 200 ppm [7] | mortality at 24 ppm [8]

CCS(=N)(=O)c1cc(C2CC2)cnc1-c1cn2ncc(C(F)(F)F)cc2n1 (stereo not shown) [Example P16, [5-cyclopropyl-2-[7-(trifluoromethyl)imidazo[1,2-b]pyridazin-2-yl]-3-pyridyl]-ethyl-imino-oxo-λ^6-sulfane]
≥ 80%: mortality at 200 ppm [2] | percent control (mortality, anti-feedant effect or growth inhibition) at 200 ppm [5] | percent effect (mortality or growth inhibition) at 200 ppm [7] | percent effect (mortality or growth inhibition) at 200 ppm [9] | mortality at 24 ppm [8]
